Results as given in publication PMC10959927, “Platinum iodido drugs show potential anti-tumor activity, affecting cancer cell metabolism and inducing ROS and senescence in gastrointestinal cancer cells” (Communications Biology, 2024).
“And” between values parts separate entries of the source, which are not always exact repeats. Identical values can stand only once.

Key:
Format in all cases: cell-based, human
AGS cells [1] = test: Western blotting (p-p53, p-JNK, p-p38, p-ERK, p-CHK1/2, Mcl1, BID, BAX); settings: for fold change p-ERK vs Tubulin / fold change p-JNK vs Tubulin / fold change p-p38 vs Tubulin / fold change p-p53 vs Tubulin: Fig. 4A, replicate values; for fold change BAX vs Tubulin / fold change BID full length vs Tubulin / fold change MCL1 vs Tubulin: Fig. S3B
Method: (§1) Total protein extracts were obtained by adding the lysis buffer: 25 mM HEPES pH 7.5, 0.3 M NaCl, 1.5 mM MgCl2, 0.2 mM EDTA, 0.5 mM DTT, 20 mM β-glicerophosphate, 0.1 mM Na3VO4, 0.1% triton X-100; in the presence of protease inhibitors. Twenty μg of protein per sample were loaded and resolved using 8%, 10% or 15% SDS-PAGE polyacrylamide gels, and then transferred onto PVDF membranes, followed by immunodetection using appropriate antibodies, purchased from Santa Cruz Technology: Mcl-1 (sc-819), Cell Signaling Technology: BIM, BID, BAX (#9942), p-p38 (1:2000, #4631), p-p53^ser15 (#9284), p-ERK1/2 (1:2000, #9106), p-CHK1^ser345 and p-CHK2^ser19 (#9931), Promega Corporation-Spain: p-JNK (#V7932), or Sigma-Aldrich: α-tubulin (1:10000, #TP026). Unless indicated, all antibodies were diluted 1:1000. Secondary antibodies conjugated with horseradish peroxidase were purchased from BioRad, and chemiluminescence detection was performed using ECL (Santa Cruz Biotechnology).

PANC1 cells [2] = test: as above; settings: for fold change BAX vs Tubulin / fold change MCL1 vs Tubulin: Fig. S3B; for fold change p-ERK vs Tubulin / fold change p-JNK vs Tubulin / fold change p-p38 vs Tubulin / fold change p-p53 vs Tubulin: PANC1, Fig. 4A, replicate values
Method: as §1

AGS cells [3] = test: Ratio GSH/GSSG, colorimetric kit
Method: (§2) GSH and GSSG levels were determined in AGS and PANC1 cells after 3 and 24 h of treatment with the compounds (using H2O2 as a positive control) with the Glutathione Colorimetric Detection Kit (ThermoFisher) following the manufacturer’s instructions. Thirty minutes after adding the Colorimetric Detection Reagent and the Reaction Mixture, the absorbance was read at 405 nm. A standard curve was generated with each assay to interpolate the sample results. To measure GSSG, standards and samples must be diluted with the Sample Diluent containing 2-vinylpyridine.

PANC1 cells [4] = test: Ratio GSH/GSSG, colorimetric kit
Method: as §2

## CC(C)[NH][Pt@SP1]([I])([I])[NH]C(C)C [I6, cis-[PtI2(isopropylamine)2]]
AGS cells [1]; Time 1 h
  fold change p-ERK vs Tubulin: 2.604 fold change and 2.955 fold change and 1.91 fold change
  fold change p-JNK vs Tubulin: 1.478 fold change and 1.305 fold change and 1.607 fold change
  fold change p-p38 vs Tubulin: 1.462 fold change and 1.894 fold change and 2.196 fold change
  fold change p-p53 vs Tubulin: 0.562 fold change and 0.6997 fold change and 1.25 fold change
AGS cells [1]; Time 3 h
  fold change p-ERK vs Tubulin: 1.3326 fold change and 1.834 fold change and 1.749 fold change
  fold change p-JNK vs Tubulin: 0.8249 fold change and 0.7387 fold change and 1.623 fold change
  fold change p-p38 vs Tubulin: 1.1118 fold change and 2.258 fold change and 0.7258 fold change
  fold change p-p53 vs Tubulin: 0.3925 fold change and 0.7056 fold change and 1.358 fold change
AGS cells [1]; Time 6 h
  fold change p-ERK vs Tubulin: 1.495 fold change and 1.997 fold change and 1.556 fold change
  fold change p-JNK vs Tubulin: 0.7672 fold change and 1.335 fold change and 1.232 fold change
  fold change p-p38 vs Tubulin: 1.675 fold change and 3.507 fold change and 1.086 fold change
  fold change p-p53 vs Tubulin: 0.5607 fold change and 0.7436 fold change and 1.621 fold change
AGS cells [1]; Time 24 h
  fold change p-ERK vs Tubulin: 0.7805 fold change and 2.6246 fold change and 1.218 fold change
  fold change p-JNK vs Tubulin: 0.8639 fold change and 0.8519 fold change and 1.138 fold change
  fold change p-p38 vs Tubulin: 2.641 fold change and 0.9281 fold change and 1.316 fold change
  fold change p-p53 vs Tubulin: 0.6954 fold change and 1.1071 fold change and 1.226 fold change
AGS cells [1]; time 1 h
  fold change BAX vs Tubulin: 1.29 fold change and 0.734 fold change and 1.017 fold change
  fold change BID full length vs Tubulin: 0.722 fold change and 1.325 fold change and 0.67 fold change
  fold change MCL1 vs Tubulin: 0.493 fold change and 0.586 fold change and 0.597 fold change
AGS cells [1]; time 3 h
  fold change BAX vs Tubulin: 0.759 fold change and 1.497 fold change and 1.286 fold change
  fold change BID full length vs Tubulin: 1.126 fold change and 1.525 fold change and 0.803 fold change
  fold change MCL1 vs Tubulin: 0.592 fold change and 1.105 fold change and 0.81 fold change
AGS cells [1]; time 6 h
  fold change BAX vs Tubulin: 1.353 fold change and 1.942 fold change and 1.061 fold change
  fold change MCL1 vs Tubulin: 0.911 fold change and 1.666 fold change and 1.549 fold change
AGS cells [1]; time 24 h
  fold change BID full length vs Tubulin: 1.406 fold change and 1.917 fold change and 1.97 fold change
PANC1 cells [2]; PANC1, IC50, 1, 3, 6 and 24 h
  activation of p53 (p-p53 western blot): did not activate p53
PANC1 cells [2]; PANC1, IC50, 1, 3, 6 or 24 h
  phosphorylation of CHK1/2 (DDR pathway, western blot): did not activate
PANC1 cells [2]; PANC1, time 1 h
  fold change BAX vs Tubulin: 1.132 fold change and 1.289 fold change and 1.219 fold change
  fold change MCL1 vs Tubulin: 0.6156 fold change and 0.9493 fold change and 1.031 fold change
PANC1 cells [2]; PANC1, time 3 h
  fold change BAX vs Tubulin: 1.6811 fold change and 1.471 fold change and 1.573 fold change
PANC1 cells [2]; PANC1, time 6 h
  fold change BAX vs Tubulin: 1.615 fold change and 2.78 fold change and 2.056 fold change
  fold change MCL1 vs Tubulin: 1.135 fold change and 2.241 fold change and 1.84 fold change
PANC1 cells [2]; PANC1, time 24 h
  fold change BAX vs Tubulin: 2.639 fold change and 1.942 fold change and 1.489 fold change
PANC1 cells [2]; Time 1 h
  fold change p-ERK vs Tubulin: 1.209 fold change and 3.621 fold change and 2.27 fold change
  fold change p-JNK vs Tubulin: 1.809 fold change and 1.288 fold change and 3.68 fold change
  fold change p-p38 vs Tubulin: 2.603 fold change and 1.024 fold change and 1.89 fold change
  fold change p-p53 vs Tubulin: 0.76 fold change and 1.24 fold change and 0.65 fold change
PANC1 cells [2]; Time 3 h
  fold change p-ERK vs Tubulin: 0.5754 fold change and 1.698 fold change and 1.17 fold change
  fold change p-JNK vs Tubulin: 0.5257 fold change and 0.2509 fold change and 3.356 fold change
  fold change p-p38 vs Tubulin: 1.159 fold change and 1.033 fold change and 1.07 fold change
  fold change p-p53 vs Tubulin: 0.78 fold change and 1.36 fold change and 1.16 fold change
PANC1 cells [2]; Time 6 h
  fold change p-ERK vs Tubulin: 0.6008 fold change and 2.546 fold change and 1.66 fold change
  fold change p-JNK vs Tubulin: 0.6321 fold change and 0.3554 fold change and 4.716 fold change
  fold change p-p38 vs Tubulin: 0.976 fold change and 1.156 fold change and 1.0897 fold change
  fold change p-p53 vs Tubulin: 1.01 fold change and 0.69 fold change and 0.99 fold change
PANC1 cells [2]; Time 24 h
  fold change p-ERK vs Tubulin: 0.4409 fold change and 1.892 fold change and 1.09 fold change
  fold change p-JNK vs Tubulin: 0.5968 fold change and 0.8335 fold change and 2.596 fold change
  fold change p-p38 vs Tubulin: 1.91 fold change and 1.31 fold change and 1.357 fold change
  fold change p-p53 vs Tubulin: 2.28 fold change and 1.99 fold change and 1.04 fold change
AGS cells [3]; AGS, 3, relative to Control = 1
  GSH/GSSG: 0.7708 and 0.7765 and 0.8015
AGS cells [3]; AGS, 24, relative to Control = 1
  GSH/GSSG: 0.964 and 0.9646 and 1.003
PANC1 cells [4]; PANC1, 3, relative to Control = 1
  GSH/GSSG: 0.8833 and 0.8858 and 1.064
PANC1 cells [4]; PANC1, 24, relative to Control = 1
  GSH/GSSG: 0.52 and 0.6511 and 0.6572
